Assay results from patent US20060258726A1, “1,5-Disubstituted imidazolidin-2-one derivatives for use as ep4 receptor agonists in the treatment of eye and bone diseases” (priority 2002, published 2006).

What was measured:
EP4 mRNA [1] = experiment: EP4 mRNA levels in bone-derived cell lines (Northern blot); assay type: cell-based, rat
Experimental: (§1) RP-1 periosteal cells are spontaneously immortalized from primary cultures of periosteal cells from tibae of 4-week old Sprague-Dawley rats and are cultured in DMEM (BRL, Gaithersburg, Md.) with 10% fetal bovine serum (JRH Biosciences, Lenexa, Kans.).
RCT-1 and RCT-3 are clonal cell lines immortalized by SV-40 large T antigen from cells released from fetal rat calvair by a cmbination collagenase/hyaluronidase digestion. RCT-1 cells, derived from cells released during the first 10 minutes of digestion (fraction I), are cultured in RPMI 1640 medium (BRL) with 10% fetal bovine serum and 0.4 mg/ml G418 (BRL). These cells differentiate and express osteoblastic features upon retinoic acid treatment. RCT-3 cells, immortalized from osteoblast-enriched fraction III cells, are cultured in F-12 medium (BRL) with 5% Fetal bovine serum and 0.4 mg/ml G418. TRAB-11 cells are also immortalized by SV40 large T antigen from adult rat tibia and are cultured in RPML 1640 medium with 10% FBS and 0.4 mg/ml G418. ROS 17/2.8 rat osteosarcoma cells are cultured in F-12 containing 5% FBS. Osteoblast-enriched (fraction E) primary fetal rat calvaria cells are obtained by collagenase/hyaluronidase digestion of calvariae of 19 day-old rat fetuses. See Rodan et al., Growth stimulation of rat calvaria osteoblastic cells by acidic FGF, Endocrinology, 121, 1919-1923 (1987), which is incorporated by reference herein in its entirety. Cells are released during 30-50 minutes digestion (fraction E) and are cultured in F-12 medium containing 5% […].
(§2) Total RNA is extracted from the tibial metaphysis or diaphysis and calvaria using a guanidinium isothiocyanate-phenol-chloroform method after pulverizing frozen bone samples by a tissue homogenizer. See P. Chomczynski et al., Single-step method of RNA isolation by acid guanlidium thiocyanate-phenol-chloroform extraction., Analyt Biochem, 162, 156-159 (1987), which is incorporated by reference herein in its entirety. RNA samples ([…]) are separated on 0.9% agarose/formaldehyde gels and transferred onto nylon membranes (Boehringer Mannheim, Germany). […]

EP2 mRNA [2] = experiment: EP2 mRNA in bone tissue after systemic injection (Northern blot); assay type: in vivo, rat
Experimental: (§3) For mRNA localization experiments, 5-week old Sprague-Dawley rats (Charles River) are euthanized by CO2, their tibiae and calvariae are excised, cleaned of soft tissues and frozen immediately in liquid nitrogen. For EP4 regulation experiments, 6-week old rats are given a single injection of either vehicle (7% ethanol in sterile water) or an anabolic dose of PGE2 (Cayman Chemical, Ann Arbor, Mich., 3-6 mg/kg in the same vehicle) intraperitoneally. Animals are euthanized at several time points post-injection and their tibiae and calvariae, as well as samples from lung and kidney tissues are frozen in liquid nitrogen.
as §2

EP4 mRNA [3] = experiment: EP4 mRNA levels in bone tissue after systemic injection (Northern blot); assay type: in vivo, rat; details: tibial diaphysis, 3-6 mg/Kg systemic
From the text: For mRNA localization experiments, 5-week old Sprague-Dawley rats (Charles River) are euthanized by CO2, their tibiae and calvariae are excised, cleaned of soft tissues and frozen immediately in liquid nitrogen. […] Animals are euthanized at several time points post-injection and their tibiae and calvariae, as well as samples from lung and kidney tissues are frozen in liquid nitrogen.
as §2, with “Germany). Membranes are prehybridized in Hybrisol I (Oncor, Gaithersburg, Md.) and 0.5 mg/ml sonicated salmon sperm DNA (Boehringer) at 42° C. for 3 hours and are hybridized at 42° C. with rat EP2 and mouse EP4 cDNA probes labeled with [^32P]-dCTP (Amersham, Buckinghamshire, UK) by random priming using the rediprime kit (Amersham).” for “Germany).”

EP4 mRNA [4] = experiment: Localization of EP4 mRNA expression in bone tissue by in situ hybridization; assay type: in vivo; details: single anabolic dose, rat tibia
Experimental: as §3
Frozen tibiae are sectioned coronally at […] thickness and sections are mounted on charged slides (Probe On Plus, Fisher Scientific, Springfield, N.J.) and are kept at −70° C. until hybridization. cRNA probes are labeled with ^35S-UTPgS (ICN, Costa Mesa, Calif.) using a Riboprobe II kit (Promega Madison, Wis.). Hybridization is performed overnight at 50° C. […]
In situ hybridization is used in order to localize cells expressing EP4 in bone. In control experiment (vehicle-injected) rats, low expression of EP4 is detected in bone marrow cells. […]

EP2 mRNA [5] = experiment: EP2 mRNA in RP-1 periosteal cells (Northern blot); assay type: cell-based, rat; details: RP-1 cells
Experimental: as §1
Total RNA is extracted from the tibial metaphysis or diaphysis and calvaria using a guanidinium isothiocyanate-phenol-chloroform method after pulverizing frozen bone samples by a tissue homogenizer. See P. Chomczynski et al., Single-step method of RNA isolation by acid guanlidium thiocyanate-phenol-chloroform extraction., Analyt Biochem, 162, 156-159 (1987), which is incorporated by reference herein in its entirety. RNA samples ([…]) are separated on 0.9% agarose/formaldehyde gels and transferred onto nylon membranes (Boehringer Mannheim, Germany). Membranes are prehybridized in Hybrisol I (Oncor, Gaithersburg, Md.) and 0.5 mg/ml sonicated salmon sperm DNA (Boehringer) at 42° C. for 3 hours and are hybridized at 42° C. with rat EP2 and mouse EP4 cDNA probes labeled with [^32P]-dCTP (Amersham, Buckinghamshire, UK) by random priming using the rediprime kit (Amersham). After hybridization, membranes are washed 4 times in 2×SSC+0.1% SDS at room temperature for a total of 1 hour and once with 0.2×SSC+0.1% SDS at 55° C. for 1 hour and then exposed to Kodak XAR 2 film at −70° C. using intensifying screens. […]

intracellular cAMP = experiment: Effect of PGE2 on intracellular cAMP in osteoblastic cell lines; assay type: cell-based, rat

CCCCC[C@H](O)/C=C/[C@H]1[C@H](O)CC(=O)[C@@H]1C/C=C\CCCC(=O)O [PGE2]
effect on EP4 mRNA levels (EP4 mRNA [1]; RCT-3 cells): no effect | effect on EP4 mRNA levels (EP4 mRNA [1]; RP-1 periosteal cells, 10^−6 M): rapidly increases | time of peak EP4 mRNA level after treatment (EP4 mRNA [1]; RP-1 periosteal cells, 10^−6 M): 2 h | induction of EP2 mRNA (EP2 mRNA [2]): does not induce | time of peak EP4 mRNA level after injection (EP4 mRNA [3]): 2 h | effect on EP4 mRNA levels (EP4 mRNA [3]; five-week-old male rats): rapidly increased | expression of EP4 in bone marrow cells (EP4 mRNA [4]): increased | EP2 mRNA expression before or after treatment (EP2 mRNA [5]): not expressed | effect on intracellular cAMP (intracellular cAMP; RCT-3 cells): markedly induced | effect on intracellular cAMP (intracellular cAMP; ROS 17/2.8 rat osteosarcoma cells): no effect | effect on intracellular cAMP (intracellular cAMP; TRAB-11 cells): markedly induced
